From patent US11826373B2, “Methods for treatment of diseases” (Galera Labs, LLC, priority 2011, dated 2023)

Columns and labels:
beagle dogs = assay: GC4403 7-day IV toxicity in dog; type: in vivo; settings: 7 days
Experimental: GC4403 in 26 mM sodium bicarbonate/0.9% sodium chloride was administered to beagle dogs (4/sex/group) IV (slow bolus injection over at least 1 minute) at dosages of 0, 1, 3 or 6 mg/kg/day for 7 days. There was no mortality during the study. […] At 6 mg/kg/day, animals also had tremors, abnormal stance and gait, inability to stand and prostration. Generally, clinical signs had resolved by two hours after dose administration. As the study progressed, some clinical signs (tremors, inability to stand, prostration and abnormal stance and gait) lessened slightly. […] The lower white cell counts correlated with lower absolute neutrophil and eosinophil counts at ≥3 mg/kg/day, which were, however, within the normal historical values for these parameters. At necropsy, there were no changes in organ weights compared to control animals nor were there macroscopic or microscopic changes in any organs with the exception of fibrosis in the heart of one male at 3 mg/kg/day and 1 male at 6 mg/kg/day.

Sprague-Dawley rats = assay: Rat GC4403 28-day IV toxicology; type: in vivo; settings: 28 days
Experimental: GC4403 was evaluated in a 28-day GLP study in Sprague-Dawley rats. GC4403 was administered to rats (10/sex/group) as slow-bolus IV injections at dosages of 0, 1, 3 or 6 mg/kg/day for 28 days. The control (0 dose) group received vehicle (26 mM sodium bicarbonate in normal saline). Evaluations for compound-related effects were based on clinical observations, body weight, food consumption, hematology and clinical chemistry parameters, functional observation battery, organ weights and gross and microscopic postmortem examinations. There were no compound-related changes in organ weights or macroscopic or microscopic pathology. Based on the results of this study, the NOTEL for GC4403, when administered to rats for 28 days as an IV infusion was 3 mg/kg/day.

For `[Cl][Mn-5]1234([Cl])[n+]5c6cccc5C[NH+]1[C@@H]1CCCC[C@H]1[NH+]2CC[NH+]3[C@@H]1CCCC[C@H]1[NH+]4C6` (stereo partly shown) [GC4403], the mortality (beagle dogs; dog, 1, 3 or 6 mg/kg/day IV) was “no mortality”, the “no observed toxic event level (NOTEL)” value (beagle dogs; dog, IV slow bolus injection) was 3 mg/kg/day and the “dosage at which clinical signs immediately after dose administration were observed” value (beagle dogs; dog, IV slow bolus, scratching, facial swelling, raised red areas, partial closing of the eyes) was at least 3 mg/kg/day. For the same molecule, the NOTEL (Sprague-Dawley rats) was 3 mg/kg/day.
